Where a name gives a salt, the structure may show the parent alone. Read-outs that look alike come from different tables or passages of the source.
Columns and labels:
MCF-7 cells = experiment: MTT cytotoxicity assay, MCF-7; type: cell-based, human; conditions: read-out: IC50 MCF-7
Experimental: (§1) The anticancer activities of compounds 17–24, 41–56 against MCF-7, MDA-MB-231 and hTERT-RPE1 cells were determined in vitro by an MTT assay. […] The data was calculated and presented as IC50 values in Table 1.
(§2) The cytotoxicities of the compounds were evaluated by the MTT assay, which is based on the conversion of MTT to formazan crystals by mitochondrial dehydrogenases. […] The medium was incubated with 20 μL of 5 mg/mL MTT solution for 3 h in a humidified incubator containing 5% CO2. The purple coloured formazan crystals formed in the wells were dissolved in DMSO and their absorbances were measured at 570 nm with a microplate reader. Cell viability was expressed as a percentage of the value in control cultures.

MDA-MB-231 cells = experiment: MTT cytotoxicity assay, MDA-MB-231; type: cell-based, human; conditions: read-out: IC50 MDA-MB-231
Experimental: The data was calculated and presented as IC50 values in Table 1.
as §2

hTERT-RPE1 cells = experiment: MTT cytotoxicity assay, hTERT-RPE1 normal cells; type: cell-based, human; conditions: read-out: IC50 hTERT-RPE1
Experimental: as §1, §2

[1] = MCF7, human breast cancer cell line MCF-7, MTT method, 24 h treatment, mean ± SD
[2] = human breast cancer cell line MDA-MB-231, MTT method, 24 h treatment, mean ± SD
[3] = normal human retinal pigment epithelial cell line hTERT-RPE1, MTT method, 24 h treatment, mean ± SD

Row | SMILES | IC50 (MCF-7 cells; [1]) | IC50 (MDA-MB-231 cells; [2]) | IC50 (hTERT-RPE1 cells; [3]) | melting point | IC50 (MCF-7 cells; Homo sapiens, MCF7, 24 h) | IC50 (MDA-MB-231 cells; Homo sapiens, MDA-MB-231, 24 h) | IC50 (hTERT-RPE1 cells; Homo sapiens, hTERT-RPE1, 24 h)
1 | COC(=O)/C=C/c1ccc(OC(=O)[C@@]2(C)CC[C@]3(C)CC[C@]4(C)C(=CC(=O)[C@@H]5[C@@]6(C)CC[C@H](OC(=O)[C@@H](N)CCSC)C(C)(C)[C@@H]6CC[C@]54C)[C@@H]3C2)c(OC)c1 [Compound 41, Ferulic acid methyl ester 3β-(l-methionine)-11-oxo-olean-12-en-30-oate hydrochloride] | 6 ± 0.43 µM | 3.52 ± 0.61 µM | 10.4 ± 0.8 µM |  |  |  | 
2 | CCOC(=O)/C=C/c1ccc(OC(=O)[C@@]2(C)CC[C@]3(C)CC[C@]4(C)C(=CC(=O)[C@@H]5[C@@]6(C)CC[C@H](OC(=O)[C@@H](N)CCSC)C(C)(C)[C@@H]6CC[C@]54C)[C@@H]3C2)cc1 (as salt: hydrochloride) [Compound 47, trans-4-Hydroxycinnamic acid ethyl ester 3β-(l-methionine)-11-oxo-olean-12-en-30-oatehydrochloride] |  |  |  | 202 to 204 °C |  |  | 
3 | COC(=O)/C=C/c1ccc(OC(=O)[C@@]2(C)CC[C@]3(C)CC[C@]4(C)C(=CC(=O)[C@@H]5[C@@]6(C)CC[C@H](OC(=O)[C@@H](N)CC[Se]C)C(C)(C)[C@@H]6CC[C@]54C)[C@@H]3C2)cc1 (as salt: hydrochloride) [Compound 46, trans-4-Hydroxycinnamic acid methyl ester 3β-(l-selenomethionine)-11-oxo-olean-12-en-30-oate hydrochloride] |  |  |  | 218 to 221 °C |  |  | 
4 | COC(=O)/C=C/c1ccc(OC(=O)[C@@]2(C)CC[C@]3(C)CC[C@]4(C)C(=CC(=O)[C@@H]5[C@@]6(C)CC[C@H](OC(=O)[C@@H](N)CC[Se]C)C(C)(C)[C@@H]6CC[C@]54C)[C@@H]3C2)c(OC)c1 [Compound 42, Ferulic acid methyl ester 3β-(l-selenomethionine)-11-oxo-olean-12-en-30-oate hydrochloride] |  |  |  |  | 1.88 ± 0.2 µM | 1.37 ± 0.18 µM | 4.93 ± 0.36 µM
5 | COC(=O)/C=C/c1cccc(OC(=O)[C@@]2(C)CC[C@]3(C)CC[C@]4(C)C(=CC(=O)[C@@H]5[C@@]6(C)CC[C@H](OC(=O)[C@@H](N)CC[Se]C)C(C)(C)[C@@H]6CC[C@]54C)[C@@H]3C2)c1 [Compound 54, trans-3-Hydroxycinnamic acid methyl ester 3β-(l-selenomethionine)-11-oxo-olean-12-en-30-oate hydro-chloride] |  |  |  |  | 3.48 ± 0.82 µM | 2.46 ± 0.77 µM | 4.55 ± 0.44 µM
6 | COC(=O)/C=C/c1ccc(OC(=O)[C@@]2(C)CC[C@]3(C)CC[C@]4(C)C(=CC(=O)[C@@H]5[C@@]6(C)CC[C@H](OC(=O)[C@@H](N)CCSC)C(C)(C)[C@@H]6CC[C@]54C)[C@@H]3C2)cc1 [Compound 45, trans-4-Hydroxycinnamic acid methyl ester 3β-(l-methionine)-11-oxo-olean-12-en-30-oate hydrochloride] | 7.24 ± 0.3 µM | 6.43 ± 0.84 µM | 8.48 ± 0.73 µM |  |  |  | 
7 | COC(=O)/C=C/c1ccc(OC(=O)[C@@]2(C)CC[C@]3(C)CC[C@]4(C)C(=CC(=O)[C@@H]5[C@@]6(C)CC[C@H](OC(=O)[C@@H](N)CC[Se]C)C(C)(C)[C@@H]6CC[C@]54C)[C@@H]3C2)cc1 [Compound 46, trans-4-Hydroxycinnamic acid methyl ester 3β-(l-selenomethionine)-11-oxo-olean-12-en-30-oate hydrochloride] |  |  |  |  | 6.02 ± 0.35 µM | 6.27 ± 0.24 µM | 6.33 ± 0.19 µM
8 | CCOC(=O)/C=C/c1cccc(OC(=O)[C@@]2(C)CC[C@]3(C)CC[C@]4(C)C(=CC(=O)[C@@H]5[C@@]6(C)CC[C@H](OC(=O)[C@@H](N)CCSC)C(C)(C)[C@@H]6CC[C@]54C)[C@@H]3C2)c1 [Compound 55, trans-3-Hydroxycinnamic acid ethyl ester 3β-(l-methionine)-11-oxo-olean-12-en-30-oate hydrochloride] | 5.79 ± 0.85 µM | 1.92 ± 0.91 µM | 6.63 ± 0.22 µM |  |  |  | 
9 | CCOC(=O)/C=C/c1ccc(OC)c(OC(=O)[C@@]2(C)CC[C@]3(C)CC[C@]4(C)C(=CC(=O)[C@@H]5[C@@]6(C)CC[C@H](OC(=O)[C@@H](N)CC[Se]C)C(C)(C)[C@@H]6CC[C@]54C)[C@@H]3C2)c1 [Compound 52, Isoferulic acid ethyl ester 3β-(l-selenomethionine)-11-oxo-olean-12-en-30-oate hydrochloride] |  |  |  |  | 6.93 ± 0.63 µM | 3.27 ± 0.66 µM | 10.1 ± 0.28 µM
10 | COC(=O)/C=C/c1ccc(OC)c(OC(=O)[C@@]2(C)CC[C@]3(C)CC[C@]4(C)C(=CC(=O)[C@@H]5[C@@]6(C)CC[C@H](OC(=O)[C@@H](N)CC[Se]C)C(C)(C)[C@@H]6CC[C@]54C)[C@@H]3C2)c1 [Compound 50, Isoferulic acid methyl ester 3β-(l-selenomethionine)-11-oxo-olean-12-en-30-oate hydrochloride] |  |  |  |  | 5.12 ± 0.58 µM | 3.13 ± 0.45 µM | 9.79 ± 0.37 µM
11 | COC(=O)/C=C/c1cccc(OC(=O)[C@@]2(C)CC[C@]3(C)CC[C@]4(C)C(=CC(=O)[C@@H]5[C@@]6(C)CC[C@H](OC(=O)[C@@H](N)CCSC)C(C)(C)[C@@H]6CC[C@]54C)[C@@H]3C2)c1 [Compound 53, trans-3-Hydroxycinnamic acid methyl ester 3β-(l-methionine)-11-oxo-olean-12-en-30-oate hydrochloride] | 7.2 ± 0.55 µM | 3.54 ± 0.46 µM | 8.49 ± 0.51 µM |  |  |  | 
12 | CC1(C)[C@@H](O)CC[C@]2(C)[C@H]3C(=O)C=C4[C@@H]5C[C@@](C)(C(=O)O)CC[C@]5(C)CC[C@@]4(C)[C@]3(C)CC[C@@H]12 [GA, glycyrrhetinic acid] | 75.7 ± 1.52 µM | 84.7 ± 1.73 µM | 63.4 ± 1.07 µM |  |  |  | 
13 | CCOC(=O)/C=C/c1ccc(OC(=O)[C@@]2(C)CC[C@]3(C)CC[C@]4(C)C(=CC(=O)[C@@H]5[C@@]6(C)CC[C@H](OC(=O)[C@@H](N)CCSC)C(C)(C)[C@@H]6CC[C@]54C)[C@@H]3C2)cc1 [Compound 47, trans-4-Hydroxycinnamic acid ethyl ester 3β-(l-methionine)-11-oxo-olean-12-en-30-oatehydrochloride] | 2.65 ± 0.12 µM | 2.31 ± 0.65 µM | 5.65 ± 1.02 µM |  |  |  | 
14 | CCOC(=O)/C=C/c1ccc(OC(=O)[C@@]2(C)CC[C@]3(C)CC[C@]4(C)C(=CC(=O)[C@@H]5[C@@]6(C)CC[C@H](OC(=O)[C@@H](N)CC[Se]C)C(C)(C)[C@@H]6CC[C@]54C)[C@@H]3C2)cc1 [Compound 48, trans-4-Hydroxycinnamic acid ethyl ester 3β-(l-selenomethionine)-11-oxo-olean-12-en-30-oate hydrochloride] |  |  |  |  | 2.42 ± 0.23 µM | 1.86 ± 0.29 µM | 7.08 ± 0.73 µM
15 | COC(=O)/C=C/c1ccc(OC)c(OC(=O)[C@@]2(C)CC[C@]3(C)CC[C@]4(C)C(=CC(=O)[C@@H]5[C@@]6(C)CC[C@H](OC(=O)[C@@H](N)CCSC)C(C)(C)[C@@H]6CC[C@]54C)[C@@H]3C2)c1 [Compound 49, Isoferulic acid methyl ester 3β-(l-methionine)-11-oxo-olean-12-en-30-oate hydrochloride] | 8.7 ± 0.14 µM | 4.56 ± 0.36 µM | 8.92 ± 0.55 µM |  |  |  | 
16 | CCOC(=O)/C=C/c1ccc(OC)c(OC(=O)[C@@]2(C)CC[C@]3(C)CC[C@]4(C)C(=CC(=O)[C@@H]5[C@@]6(C)CC[C@H](OC(=O)[C@@H](N)CCSC)C(C)(C)[C@@H]6CC[C@]54C)[C@@H]3C2)c1 [Compound 51, Isoferulic acid ethyl ester 3β-(l-methionine)-11-oxo-olean-12-en-30-oate hydrochloride] | 8.81 ± 0.2 µM | 4.67 ± 0.74 µM | 12.5 ± 0.4 µM |  |  |  | 
17 | CCOC(=O)/C=C/c1ccc(OC(=O)[C@@]2(C)CC[C@]3(C)CC[C@]4(C)C(=CC(=O)[C@@H]5[C@@]6(C)CC[C@H](OC(=O)[C@@H](N)CC[Se]C)C(C)(C)[C@@H]6CC[C@]54C)[C@@H]3C2)c(OC)c1 [Compound 44, Ferulic acid ethyl ester 3β-(l-selenomethionine)-11-oxo-olean-12-en-30-oate hydrochloride] |  |  |  |  | 8.45 ± 0.32 µM | 3.49 ± 0.61 µM | 12.3 ± 0.46 µM
18 | CCOC(=O)/C=C/c1cccc(OC(=O)[C@@]2(C)CC[C@]3(C)CC[C@]4(C)C(=CC(=O)[C@@H]5[C@@]6(C)CC[C@H](OC(=O)[C@@H](N)CC[Se]C)C(C)(C)[C@@H]6CC[C@]54C)[C@@H]3C2)c1 [Compound 56, trans-3-Hydroxycinnamic acid ethyl ester 3β-(l-selenomethionine)-11-oxo-olean-12-en-30-oate hydrochloride] |  |  |  |  | 2.57 ± 0.4 µM | 1.53 ± 0.25 µM | 3.7 ± 0.29 µM
19 | CCOC(=O)/C=C/c1ccc(OC(=O)[C@@]2(C)CC[C@]3(C)CC[C@]4(C)C(=CC(=O)[C@@H]5[C@@]6(C)CC[C@H](OC(=O)[C@@H](N)CCSC)C(C)(C)[C@@H]6CC[C@]54C)[C@@H]3C2)c(OC)c1 [Compound 43, Ferulic acid ethyl ester 3β-(l-methionine)-11-oxo-olean-12-en-30-oate hydrochloride] | 8.62 ± 0.23 µM | 5.36 ± 0.44 µM | 16.3 ± 0.51 µM |  |  |  | 
20 | COc1cccc2c1C(=O)c1c(O)c3c(c(O)c1C2=O)C[C@@](O)(C(=O)CO)C[C@@H]3O[C@H]1C[C@H](N)[C@H](O)[C@H](C)O1 [ADR, doxorubicin, reference compound] | 0.49 ± 0.09 µM |  | 2.76 ± 0.11 µM |  |  |  | 

Source: PMC6274419, “Synthesis and Anticancer Activities of Glycyrrhetinic Acid Derivatives” (Molecules, 2016)
